Results: ChEMBL document CHEMBL4342525, “Synthesis and Biochemical Evaluation of Noncyclic Nucleotide Exchange Proteins Directly Activated by cAMP 1 (EPAC1) Regulators” (J Med Chem, 2020)
Calls of active or inactive are those of the source. No cut-off for these calls is given here.

Experiments:
[1] = target: T1, Rap guanine nucleotide exchange factor 3 (Homo sapiens) (UniProt O95398); assay: Binding affinity to GST-tagged recombinant EPAC1 CNBD (169 to 318 residues) (unknown origin) expressed in Escherichia coli BL21 Star (DE3) assessed as relative fluorescence intensity incubated for 4 hrs by 8-NBD-cAMP competition binding assay relative to control; design: concentration or dose not given beside the values
T1 sequence (whole entry): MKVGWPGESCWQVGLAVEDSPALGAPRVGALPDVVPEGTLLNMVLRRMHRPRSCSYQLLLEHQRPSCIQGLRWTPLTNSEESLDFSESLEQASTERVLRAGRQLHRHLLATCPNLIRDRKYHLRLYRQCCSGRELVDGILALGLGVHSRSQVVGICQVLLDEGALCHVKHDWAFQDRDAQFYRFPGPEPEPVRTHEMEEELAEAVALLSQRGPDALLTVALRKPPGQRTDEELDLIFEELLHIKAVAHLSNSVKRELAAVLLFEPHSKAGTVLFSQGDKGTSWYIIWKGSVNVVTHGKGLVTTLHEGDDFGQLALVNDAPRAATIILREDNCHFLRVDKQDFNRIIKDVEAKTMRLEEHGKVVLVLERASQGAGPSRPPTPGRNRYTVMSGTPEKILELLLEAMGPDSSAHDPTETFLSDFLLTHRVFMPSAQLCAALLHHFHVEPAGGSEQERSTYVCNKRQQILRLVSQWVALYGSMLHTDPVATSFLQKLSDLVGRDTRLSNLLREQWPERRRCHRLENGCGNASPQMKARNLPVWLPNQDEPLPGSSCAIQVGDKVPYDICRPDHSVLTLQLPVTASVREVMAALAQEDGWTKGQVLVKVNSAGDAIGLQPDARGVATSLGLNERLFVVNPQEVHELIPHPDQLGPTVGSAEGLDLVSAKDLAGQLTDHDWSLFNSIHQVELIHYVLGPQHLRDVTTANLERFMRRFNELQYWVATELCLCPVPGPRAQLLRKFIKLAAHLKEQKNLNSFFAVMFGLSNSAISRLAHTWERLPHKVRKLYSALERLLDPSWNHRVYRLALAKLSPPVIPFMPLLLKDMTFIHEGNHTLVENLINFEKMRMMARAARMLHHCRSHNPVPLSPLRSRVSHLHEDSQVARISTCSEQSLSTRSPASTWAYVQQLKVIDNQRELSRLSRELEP

[2] = Binding affinity to GST-tagged recombinant EPAC1 delta-DEP mutant (149 to 881 residues) (unknown origin) expressed in Escherichia coli BL21 Star (DE3) incubated for 4 hrs by 8-NBD-cAMP competition binding assay; design: species or system Homo sapiens
[3] = target: T1, Rap guanine nucleotide exchange factor 3 (Homo sapiens); assay: Activation of recombinant EPAC1 (149 to 881 residues) (unknown origin) assessed as stimulation of dissociation of fluorescent MANT-GDP from recombinant Rap1b at 500 uM in presence of excess nonfluorescent nucleotides by fluorescence based in-vitro GEF assay relative to cAMP
[4] = target: T1, Rap guanine nucleotide exchange factor 3 (Homo sapiens); assay: Activity at recombinant EPAC1 (149 to 881 residues) (unknown origin) assessed as reduction in cAMP-induced stimulation of dissociation of fluorescent MANT-GDP from recombinant Rap1b at 500 uM in presence of excess nonfluorescent nucleotides by fluorescence based in-vitro GEF assay
[5] = target: T2, Rap guanine nucleotide exchange factor 3 (Homo sapiens, UniProt O95398); assay: Activation of recombinant EPAC1 (149 to 881 residues) (unknown origin) assessed as stimulation of dissociation of fluorescent MANT-GDP from recombinant Rap1b in presence of excess nonfluorescent nucleotides by fluorescence based in-vitro GEF assay
T2 sequence (O95398 whole entry): T1 sequence (whole entry)

[6] = target: T1, Rap guanine nucleotide exchange factor 3 (Homo sapiens); assay: Activation of EPAC1 (unknown origin) expressed in U2OS cells at 100 uM pre-incubated for 10 mins before 8-pCPT-2'-O-Me-cAMP stimulation for 10 mins using GST-RalGDS-RBD by Western blot analysis based active GTP-bound Rap1 pull down assay; type: cell-based
[7] = target: T1, Rap guanine nucleotide exchange factor 3 (Homo sapiens); assay: Activation of recombinant EPAC1 (149 to 881 residues) (unknown origin) assessed as stimulation of dissociation of fluorescent MANT-GDP from recombinant Rap1b at 10 uM in presence of excess nonfluorescent nucleotides by fluorescence based in-vitro GEF assay relative to cAMP
[8] = Activation of PKA in human U2OS cells stably transfected with EPAC1 assessed as increase in VASP phosphorylation at 100 uM by Western blot analysis; type: cell-based
[9] = target: T1, Rap guanine nucleotide exchange factor 3 (Homo sapiens); assay: Activation of EPAC1 (unknown origin) expressed in U2OS cells at 100 uM incubated for 10 mins using GST-RalGDS-RBD by Western blot analysis based active GTP-bound Rap1 pull down assay; type: cell-based
[10] = target: T2, Rap guanine nucleotide exchange factor 3; assay: Binding affinity to GST-tagged recombinant EPAC1 CNBD (169 to 318 residues) (unknown origin) expressed in Escherichia coli BL21 Star (DE3) incubated for 4 hrs by 8-NBD-cAMP competition binding assay
[11] = target: T1, Rap guanine nucleotide exchange factor 3 (Homo sapiens); assay: Activation of EPAC1 in HUVEC assessed as reduction in IL-6-promoted signaling by measuring pSTAT3 protein levels at 100 uM pre-incubated for 30 mins before IL6 and sIL6Ralpha stimulation for 5 hrs by Western blotting analysis; type: cell-based
[12] = target: T1, Rap guanine nucleotide exchange factor 3 (Homo sapiens); assay: Activation of EPAC1 in HUVEC assessed as reduction in IL-6-promoted signaling by measuring pERK protein levels at 100 uM pre-incubated for 30 mins before IL6 and sIL6Ralpha stimulation for 5 hrs by Western blotting analysis; type: cell-based
[13] = target: T1, Rap guanine nucleotide exchange factor 3 (Homo sapiens); assay: Activation of EPAC1 in HUVEC assessed as reduction in IL-6-promoted signaling by measuring pAKT protein levels at 100 uM pre-incubated for 30 mins before IL6 and sIL6Ralpha stimulation for 5 hrs by Western blotting analysis; type: cell-based
[14] = target: T1, Rap guanine nucleotide exchange factor 3 (Homo sapiens); assay: Activation of EPAC1 in HUVEC assessed as reduction in IL-6-promoted signaling by measuring VCAM1 protein expression at 100 uM pre-incubated for 30 mins before IL6 and sIL6Ralpha stimulation for 5 hrs by Western blotting analysis; type: cell-based
[15] = target: T1, Rap guanine nucleotide exchange factor 3 (Homo sapiens); assay: Activation of EPAC1 in HUVEC assessed as reduction in IL-6-promoted signaling by measuring ICAM1 protein expression at 100 uM pre-incubated for 30 mins before IL6 and sIL6Ralpha stimulation for 5 hrs by Western blotting analysis; type: cell-based
[16] = target: T1, Rap guanine nucleotide exchange factor 3 (Homo sapiens); assay: Activation of EPAC1 in HUVEC assessed as reduction in IL-6-promoted signaling by measuring SELE protein expression at 100 uM pre-incubated for 30 mins before IL6 and sIL6Ralpha stimulation for 5 hrs by Western blotting analysis; type: cell-based

Structure (SMILES) | Activity [1] | further results
Cc1cc(C)c(S(=O)(=O)NC(=O)CSc2nc3ccccc3c(=O)[nH]2)c(C)c1 | 95% | –
COC(=O)c1cccc(S(=O)(=O)NC(=O)COc2ccc3ccccc3c2)c1 | 71% | –
Cc1cc(Nc2ccc(C(F)(F)F)cn2)cc(S(=O)(=O)NC(=O)COc2ccc3ccccc3c2)c1 | 20% | –
O=C(COc1ccc2ccccc2c1)NS(=O)(=O)c1cccc(-c2ccccc2)c1 | 35% | –
O=C(COc1ccc2ccccc2c1)NS(=O)(=O)C1CCCCC1 | 81% | –
O=C(COc1ccc2ccccc2c1)NS(=O)(=O)c1cccc([N+](=O)[O-])c1 | 67% | –
Cc1cc(-c2ccco2)cc(S(=O)(=O)NC(=O)COc2ccc3ccccc3c2)c1 | 40% | –
O=C(COc1ccc2ccccc2c1)NS(=O)(=O)c1ccc([N+](=O)[O-])c(F)c1 | 81% | IC50 [10]: 32.5 µM; Activity [7]: Active; Activity [8]: Not Active; Activity [9]: Active; Activity [11]: inactive; Activity [12]: inactive; Activity [13]: inactive; Activity [14]: inactive; Activity [15]: inactive; Activity [16]: inactive
Cc1cc(C)c(S(=O)(=O)NCCOc2ccc3ccccc3c2)c(C)c1 | 105% | –
COc1ccc2ccc(OCC(=O)NS(=O)(=O)c3cc(Cl)cc(Cl)c3)cc2c1 | 54% | –
Cc1cc(C)c(S(=O)(=O)NC(=O)CN2CCc3ccccc3C2)c(C)c1 | 102% | –
Cc1cc(C)c(S(=O)(=O)NC(=O)CNc2cccc(Cl)c2)c(C)c1 | 88% | –
COc1cccc(S(=O)(=O)NC(=O)COc2ccc3ccccc3c2)c1 | 33% | –
O=C(COc1ccc2ccccc2c1)NS(=O)(=O)c1ccc(F)cc1 | 81% | –
Cc1cc(C)c(S(=O)(=O)NC(=O)CNc2ccc3ccccc3c2)c(C)c1 | 97% | –
COc1ccc2ccc(OCC(=O)NS(=O)(=O)c3ccc(OC)c(OC)c3)cc2c1 | 23% | –
COc1cc2c(cc1OC)CN(CC(=O)NS(=O)(=O)c1c(C)cc(C)cc1C)CC2 | 102% | –
Cc1cc(C)c(S(=O)(=O)NC(=O)CN2CCN(c3ccccn3)CC2)c(C)c1 | 119% | –
Cc1cc(C)c(S(=O)(=O)N2CCC(Oc3ccc4ccccc4c3)CC2)c(C)c1 | 105% | –
Cc1cc(C)c(S(=O)(=O)NC(=O)C(F)Oc2ccc3ccccc3c2)c(C)c1 (stereo not given) | 82% | –
O=C(COc1ccc2ccccc2c1)NS(=O)(=O)c1cccc(F)c1 | 82% | –
Cc1cc(C)c(S(=O)(=O)NC(=O)CSc2ccc3ccccc3c2)c(C)c1 | 92% | –
Cc1cc(C)c(S(=O)(=O)NC(=O)CN2CCn3c(nnc3C(F)(F)F)C2)c(C)c1 | 104% | –
O=C(COc1ccc2ccccc2c1)NS(=O)(=O)c1ccccc1 | 49% | –
Cc1cc(-c2cncc(F)c2)cc(S(=O)(=O)NC(=O)COc2ccc3ccccc3c2)c1 | 36% | –
O=C(COc1ccc2ccccc2c1)NS(=O)(=O)c1cccc(-c2ccoc2)c1 | 53% | –
CC(=O)c1c(OCC(=O)NS(=O)(=O)c2c(C)cc(C)cc2C)ccc2ccccc12 | 104% | –

Further lines, with some results ahead:

Activity [1] | Structure (SMILES) | further results
94% | Cc1ccc(S(=O)(=O)NC(=O)COc2ccc3[nH]ncc3c2)c(C)c1 | –
50% | COc1ccc(S(=O)(=O)NC(=O)COc2ccc3ccccc3c2)cc1OC | –
50% | Cc1ccc(S(=O)(=O)NC(=O)COc2ccc3cc(Cl)ccc3c2)c(C)c1 | –
44% | Cc1ccc(S(=O)(=O)NC(=O)COc2ccc3ccccc3c2)cc1 | –
23% | COc1ccc(S(=O)(=O)NC(=O)COc2ccc3ccccc3c2)c(OC)c1 | IC50 [2]: 4.9 µM; Activity [3]: 2%; Activity [4]: Active; EC50 [5]: 5 µM; Activity [6]: Active; Activity [7]: Active; Activity [8]: Not Active; Activity [9]: Active
72% | COc1ccc(OC)c(S(=O)(=O)NC(=O)COc2ccc3ccccc3c2)c1 | –
94% | Cc1cc(C)c(S(=O)(=O)NC(=O)COc2cccc3ccccc23)c(C)c1 | –
92% | Cc1cc(C)c(S(=O)(=O)NC(=O)COc2ccc3cccnc3c2)c(C)c1 | –
55% | Cc1ccc(S(=O)(=O)NC(=O)COc2ccc3cc(F)ccc3c2)c(C)c1 | –
91% | Cc1ccc(S(=O)(=O)NC(=O)COc2ccc3[nH]ccc3c2)c(C)c1 | –
81% | Cc1ccc(S(=O)(=O)NCCOc2ccc3ccccc3c2)c(C)c1 | –
49% | COc1ccc2ccc(OCC(=O)NS(=O)(=O)c3c(C)cc(C)cc3C)cc2c1 | –
77% | Cc1cc(C)c(S(=O)(=O)NC(=O)COc2ccc3c(c2)NC(=O)CC3)c(C)c1 | –
66% | Cc1ccc(S(=O)(=O)NC(=O)COc2ccc3ccc(Cl)cc3c2)c(C)c1 | –
inactive | Nc1ccc(S(=O)(=O)NC(=O)COc2ccc3ccccc3c2)cc1F | Activity [7]: Active; Activity [8]: Not Active; Activity [9]: Active; Activity [11]: inactive; Activity [12]: inactive; Activity [13]: inactive; Activity [14]: inactive; Activity [15]: inactive; Activity [16]: inactive
71% | Cc1ccc(S(=O)(=O)NC(=O)COc2cccc3ccccc23)c(C)c1 | –
34% | Cc1cc(-c2ccnn2C)cc(S(=O)(=O)NC(=O)COc2ccc3ccccc3c2)c1 | –
29% | COc1ccc2ccc(OCC(=O)NS(=O)(=O)c3cc(C)cc(Br)c3)cc2c1 | –
49% | COc1ccc(OC)c(S(=O)(=O)NC(=O)COc2ccc3ccc(OC)cc3c2)c1 | –
77% | Cc1cc(C)c(S(=O)(=O)NC(=O)COc2ccc3c(c2)CCCC3)c(C)c1 | –
76% | Cc1ccc(S(=O)(=O)NC(=O)C(C)(C)Oc2ccc3ccccc3c2)c(C)c1 | –
69% | O=C(COc1ccc2ccccc2c1)NS(=O)(=O)c1ccccc1F | –
38% | Cc1cc(C)cc(S(=O)(=O)NC(=O)COc2ccc3ccccc3c2)c1 | –
58% | Cc1cc(Br)cc(S(=O)(=O)NC(=O)COc2ccc3ccccc3c2)c1 | –
81% | Cc1cc(C)c(S(=O)(=O)NC(=O)COc2ccc3ccccc3c2)c(C)c1 | –
24% | COc1ccc2ccc(OCC(=O)NS(=O)(=O)c3ccc([N+](=O)[O-])cc3OC)cc2c1 | –
